Experimental data as given in EPA's ToxValDB 9.5 (doi:10.2903/j.efsa.2006.89r).
In brackets after ≈: the same amount, converted by molar mass.

Key:
Bibionidae = conditions: chronic/long-term; duration: 28 days
Colinus virginianus = conditions: reproduction developmental
Canidae = conditions: oral, Dog Other, clinical signs
Apis mellifera = conditions: acute; duration: 48 hours; dermal; mortality
Anas platyrhynchos = conditions: oral, mortality
Daphnia magna = conditions: acute; duration: 48 hours; mortality
Lepomis macrochirus = conditions: acute; duration: 96 hours; mortality

## CCOC(=O)CCN(SN(C)C(=O)Oc1cccc2c1OC(C)(C)C2)C(C)C [Benfuracarb]
Bibionidae
  NOEC: 0.001 mg/L
Colinus virginianus
  NOEC: 8.93 mg/kg-day
Canidae; chronic, duration: 2 years
  NOAEL: 2.5 mg/kg-day
Canidae; chronic, duration: 6 months
  NOAEL: 2.5 mg/kg-day
Canidae; subchronic, duration: 13 weeks
  NOAEL: 0.625 mg/kg-day
Apis mellifera
  LD50: 0.19 µg/piece
Anas platyrhynchos; acute, unspecified
  LD50: 19.8 mg/kg
Anas platyrhynchos; short-term, feed
  LC50: 15 mg/kg-day
Daphnia magna
  LC50: 0.0099 µg/mL (≈ 0.0241 µM)
Rattus norvegicus; acute, oral, mortality
  LD50: 205 mg/kg
Rattus norvegicus; reproduction developmental, reproduction
  NOAEL: 1.2 mg/kg-day
Rattus norvegicus; short-term, duration: 28 days, clinical chemistry
  NOAEL: 1.8 mg/kg-day
Lepomis macrochirus
  LC50: 0.017 µg/mL (≈ 0.0414 µM)
